Structures are written as SMILES.

The first experiment addresses T1, PPARγ (Homo sapiens, UniProt P37231).
T1 construct: Following the challenge of the preadipocytes, cells may be lysed with lysis buffer; endogenous in cells; host or cells: preadipocytes
T1 sequence (P37231 1-505): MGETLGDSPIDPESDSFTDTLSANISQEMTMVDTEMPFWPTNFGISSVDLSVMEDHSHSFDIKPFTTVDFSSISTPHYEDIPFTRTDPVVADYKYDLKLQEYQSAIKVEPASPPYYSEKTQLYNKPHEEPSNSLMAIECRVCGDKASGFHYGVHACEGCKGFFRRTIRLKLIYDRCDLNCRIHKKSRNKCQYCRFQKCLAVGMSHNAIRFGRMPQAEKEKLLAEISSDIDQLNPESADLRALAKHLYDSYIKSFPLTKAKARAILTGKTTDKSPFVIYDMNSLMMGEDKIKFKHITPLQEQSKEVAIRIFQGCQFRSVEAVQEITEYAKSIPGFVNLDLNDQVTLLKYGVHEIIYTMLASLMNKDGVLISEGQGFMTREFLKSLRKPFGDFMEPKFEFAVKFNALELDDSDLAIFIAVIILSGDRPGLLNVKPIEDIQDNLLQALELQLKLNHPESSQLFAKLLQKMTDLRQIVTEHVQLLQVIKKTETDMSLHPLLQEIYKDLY
Put plainly: aP2 Assay for PPAR Gamma Agonists (bDNA aP2 mRNA, preadipocytes). Type of experiment: cell-based. Particulars: fold induction, unbracketed values; PPARγ standard FI = 70.3. From the text:
aP2 Assay for PPAR Gamma Agonists
The procedure is described in detail in Burris et al., Molecular Endocrinology 1999, 13:410, which is hereby incorporated by reference in its entirety, and aP2 assay results of agonist intrinsic activity may be presented as fold increase over vehicle in induction of aP2 mRNA production.
Twenty-four hours after the initial seeding of the 96-well plates by hand (around 20,000/well), the differentiation assay may be initiated. Medium may be removed and replaced with 150 μl of differentiation medium containing vehicle (DMSO) or test compounds. Cells may be returned to incubator for 24 hours culture. At the termination of the challenge, medium may be removed and 100 ul of lysis buffer may be added to initiate the bDNA aP2 mRNA assay. The branched DNA assay may be performed according to the manufacturer's protocol (Bayer Diagnostics; Emeryville, Calif.). Result may be expressed as the fold increase of aP2 mRNA production activated over vehicle controls. EC50's and Emax may be determined by non-linear regression with a sigmoidal fit curve.
Following the challenge of the preadipocytes, cells may be lysed with lysis buffer (Bayer Diagnostics) containing the aP2 oligonucleotides. After a 15 minute incubation at 53° C. or 30 minutes at 37° C. incubator, 70 ul of the lysis buffer from each well may be added to a corresponding capture well (preincubated with 70 ul of blocking buffer (Bayer Diagnostics)). The capture plate may be incubated overnight at 53° C. in a plate incubator (Bayer Diagnostics). After this incubation, the bDNA and labeled probes may be annealed as directed by the manufacturer. Following a 30-minute incubation with the luminescent alkaline phosphatase substrate, dioxitane, the luminescence may be quantitated in a Dynex MLX microtiter plate luminometer. Oligonucleotide probes designed to anneal to the aP2 mRNA and function in the bDNA mRNA detection system are designed with ProbeDesigner software (Bayer Diagnostics). This software package analyzes a target sequence of interest with a series of algorithms in order to determine which regions of the sequence can perform as locations for capture, label, or spacer probe annealing. The sequences of the oligonucleotides are as follows: […]
On to `CCN(C(=O)Nc1ccc(OC(F)(F)F)cc1)C1Cc2ccc(SC(C)(C)C(=O)O)cc2C1` (stereo not drawn) [Example 2, 2-{2-[1-Ethyl-3-(4-trifluoromethoxyphenyl)ureido]indan-5-ylsulfanyl}-2-methylpropionic acid], for which the “PPARγ FI” value is recorded as 0.24.

As for `CCN(C(=O)Nc1ccc(SC(F)(F)F)cc1)C1Cc2ccc(SC(C)(C)C(=O)O)cc2C1` (stereo not drawn) [Example 4, 2-{2-[1-Ethyl-3-(4-trifluoromethylsulfanylphenyl)ureido]indan-5-ylsulfanyl}-2-methylpropionic acid], the “PPARγ FI” value came to 3.7.

As to `CCCCCN(C(=O)Nc1ccc(SC(F)(F)F)cc1)C1Cc2ccc(SC(C)(C)C(=O)O)cc2C1` (stereo not drawn) [Example 5, 2-Methyl-2-{2-[1-pentyl-3-(4-trifluoromethylsulfanylphenyl)ureido]indan-5-ylsulfanyl}propionic acid], the “PPARγ FI” value turned out to be 4.0.

Turning to `CCCCCN(C(=O)Nc1ccc(-c2ccccc2)cc1)C1Cc2ccc(SC(C)(C)C(=O)O)cc2C1` (stereo not drawn) [Example 12, 2-[2-(3-Biphenyl-4-yl-1-pentylureido)indan-5-ylsulfanyl]-2-methylpropionic acid], the “PPARγ FI” value is on record as 11.

`CCCCCCN(C(=O)Nc1ccc(C(C)C)cc1)C1Cc2ccc(SC(C)(C)C(=O)O)cc2C1` (stereo not drawn) [Example 13, 2-{2-[3-(4-Isopropylphenyl)-1-hexylureido]indan-5-ylsulfanyl}-2-methylpropionic acid]: the “PPARγ FI” value came to 1.2.

As to `CCCN(C(=O)Nc1ccc(OC(F)(F)F)cc1)C1Cc2ccc(SC(C)(C)C(=O)O)cc2C1` (stereo not drawn) [Example 16, 2-Methyl-2-{2-[1-propyl-3-(4-trifluoromethoxyphenyl)ureido]indan-5-ylsulfanyl}propionic acid], the “PPARγ FI” value amounted to 0.37.

For the molecule `CCCCN(C(=O)Nc1ccc(SC(F)(F)F)cc1)C1Cc2ccc(SC(C)(C)C(=O)O)cc2C1` (stereo not drawn) [Example 17, 2-Methyl-2-{2-[1-butyl-3-(4-trifluoromethylsulfanylphenyl)ureido]indan-5-ylsulfanyl}propionic acid], the “PPARγ FI” value is recorded as 0.43.

On to `CC(C)(Sc1ccc2c(c1)CC(NC(=O)Nc1ccc(OC(F)(F)F)cc1)C2)C(=O)O` (stereo not drawn) [Example 18, 2-Methyl-2-{2-[3-(4-trifluoromethoxyphenyl)ureido]indan-5-ylsulfanyl}propionic acid], for which the “PPARγ FI” value was determined as 0.31.

As for `CC(C)CCN(C(=O)Nc1ccc(OC(F)(F)F)cc1)C1Cc2ccc(SC(C)(C)C(=O)O)cc2C1` (stereo not drawn) [Example 20, 2-Methyl-2-{2-[1-(3-methylbutyl)-3-(4-trifluoromethoxyphenyl)ureido]indan-5-ylsulfanyl}-2-methylpropionic acid], the “PPARγ FI” value is on record as 0.44.

On to `CC(C)CCN(C(=O)Nc1ccc(C(C)C)cc1)C1Cc2ccc(SC(C)(C)C(=O)O)cc2C1` (stereo not drawn) [Example 21, 2-{2-[3-(4-Isopropylphenyl)-1-(3-methylbutyl)ureido]indan-5-ylsulfanyl}-2-methylpropionic acid], for which the “PPARγ FI” value is 0.05.

The target of the next experiment is T2, PPARδ (Homo sapiens, UniProt Q03181).
T2 sequence (Q03181 171-441 limits assumed): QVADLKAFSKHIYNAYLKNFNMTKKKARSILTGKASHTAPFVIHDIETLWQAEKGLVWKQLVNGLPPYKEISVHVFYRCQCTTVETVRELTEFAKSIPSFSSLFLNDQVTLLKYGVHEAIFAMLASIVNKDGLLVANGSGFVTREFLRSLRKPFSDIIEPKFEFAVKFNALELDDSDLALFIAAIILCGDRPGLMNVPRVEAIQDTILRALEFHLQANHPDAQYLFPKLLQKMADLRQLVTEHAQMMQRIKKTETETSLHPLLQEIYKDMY
Description: Transfection Assay for PPARδ Receptors (PPAR-Gal4 receptor / Gal4-Luciferase Reporter, HEK293 cells). Type of experiment: cell-based. Conditions: bracketed values. How it is done:
Transfection Assay for PPARδ Receptors
HEK293 cells were grown in DMEM/F-12 Media supplemented with 10% FBS and glutamine (GIBCOBRL). The cells were co-transfected with DNA for PPAR-Gal4 receptor and Gal4-Luciferase Reporter using the DMRIE-C Reagent. On the following day, the DNA-containing medium were replaced with 5% Charcoal treated FBS growth medium. After six hours, cells were seeded in 96 well plate and incubated at 37° C. in CO2 incubator overnight. Cells were challenged by test compounds and incubated for 24 hours at 37° C. in 5% CO2 incubator. Luciferase activity was assayed using the Steady-Glo Luciferase Assay Kit from Promega. DMRIE-C Reagent was purchased from GIBCO Cat. No. 10459-014. OPTI-MEM I Reduced Serum Medium was purchased from GIBCO Cat. No. 31985. Steady-Glo Luciferase Assay Kit was obtained from Promega Part# E254B.
(In general: Reporter assays use an easily measured gene product as a stand-in for the process of interest.)
Turning to `CCN(C(=O)Nc1ccc(C(C)(C)C)cc1)C1CCc2cc(SC(C)(C)C(=O)O)c(OC)cc2C1` (stereo not drawn) [Example 49, 2-{6-[3-(4-tert-Butylphenyl)1-ethylureido]-3-methoxy-5,6,7,8-tetrahydronaphthalen-2-ylsulfanyl}-2-methylpropionic acid], the EC50 (usually the concentration needed to bring the measured effect to its halfway point) was above 3 µM.

The experiment is the same for the next values; noted with them: fold induction, unbracketed values; PPARδ standard FI = 36.1.
For the molecule `CCN(C(=O)Nc1ccc(OC(F)(F)F)cc1)C1Cc2ccc(SC(C)(C)C(=O)O)cc2C1` (stereo not drawn) [Example 2, 2-{2-[1-Ethyl-3-(4-trifluoromethoxyphenyl)ureido]indan-5-ylsulfanyl}-2-methylpropionic acid], the “PPARδ FI” value was determined as 4.2.

Consider `CCCCCN(C(=O)Nc1ccc(SC(F)(F)F)cc1)C1Cc2ccc(SC(C)(C)C(=O)O)cc2C1` (stereo not drawn) [Example 5, 2-Methyl-2-{2-[1-pentyl-3-(4-trifluoromethylsulfanylphenyl)ureido]indan-5-ylsulfanyl}propionic acid], for which the “PPARδ FI” value was determined as 2.5.

Take `CCCCCCN(C(=O)Nc1ccc(SC(F)(F)F)cc1)C1Cc2ccc(SC(C)(C)C(=O)O)cc2C1` (stereo not drawn) [Example 15, 2-Methyl-2-{2-[1-hexyl-3-(4-trifluoromethylsulfanylphenyl)ureido]indan-5-ylsulfanyl}propionic acid]: the “PPARδ FI” value is recorded as 1.2.

Take `C=CCCCN(C(=O)Nc1ccc(OC(F)(F)F)cc1)C1Cc2ccc(SC(C)(C)C(=O)O)cc2C1` (stereo not drawn) [Example 19, 2-Methy-2-{2-[1-pent-4-enyl-3-(4-trifluoromethoxyphenyl)ureido]indan-5-ylsulfanyl}propionic acid]: the “PPARδ FI” value is reported as 1.4.

As to `CCN(C(=O)Nc1ccc(OC(F)(F)F)c(Br)c1)C1Cc2ccc(SC(C)(C)C(=O)O)cc2C1` (stereo not drawn) [Example 25, 2-{2-[3-(3-Bromo-4-trifluoromethoxyphenyl)-1-ethylureido]indan-5-ylsulfanyl}-2-methylpropionic acid], the “PPARδ FI” value was found to be 4.5.

Regarding `CCN(C(=O)Nc1cccc(OC(F)(F)F)c1)C1Cc2ccc(SC(C)(C)C(=O)O)cc2C1` (stereo not drawn) [Example 26, 2-{2-[1-Ethyl-3-(3-trifluoromethoxyphenyl)ureido]indan-5-ylsulfanyl}-2-methylpropionic acid], the “PPARδ FI” value is 2.1.

In the case of `CC(C)(Sc1ccc2c(c1)CC(N(CCCC1CCCC1)C(=O)Nc1ccc(OC(F)(F)F)cc1)C2)C(=O)O` (stereo not drawn) [Example 28, 2-{2-[1-(3-Cyclopentylpropyl)-3-(4-trifluoromethoxyphenyl)ureido]indan-5-ylsulfanyl}-2-methylpropionic acid], the “PPARδ FI” value is recorded as 8.2.

In the case of `CCCN(C(=O)Nc1ccc(OC)cc1)C1Cc2ccc(SC(C)(C)C(=O)O)cc2C1` (stereo not drawn) [Example 32, 2-{2-[3-(4-Methoxyphenyl)-1-propylureido]indan-5-ylsulfanyl}-2-methylpropionic acid], the “PPARδ FI” value is recorded as 1.5.

As for `CCCN(C(=O)Nc1cc(C)cc(C)c1)C1Cc2ccc(SC(C)(C)C(=O)O)cc2C1` (stereo not drawn) [Example 33, 2-{2-[3-(3,5-Dimethylphenyl)-1-propylureido]indan-5-ylsulfanyl}-2-methylpropionic acid], the “PPARδ FI” value is 0.8.

For `CCCN(C(=O)Nc1ccc(C(F)(F)F)cc1)C1Cc2ccc(SC(C)(C)C(=O)O)cc2C1` (stereo not drawn) [Example 35, 2-Methyl-2-{2-[1-propyl-3-(4-trifluoromethylphenyl)ureido]indan-5-ylsulfanyl}-propionic acid], the “PPARδ FI” value is on record as 5.6.

Turning to `CC(C)(Sc1ccc2c(c1)CC(N(CCCC1CCCC1)C(=O)Nc1ccccc1)C2)C(=O)O` (stereo not drawn) [Example 37, 2-{2-[1-(3-Cyclopentylpropyl)-3-phenylureido]indan-5-ylsulfanyl}-2-methylpropionic acid], the “PPARδ FI” value was 1.9.

Consider `CCCCCN(C(=O)Nc1ccc2ccccc2c1)C1Cc2ccc(SC(C)(C)C(=O)O)cc2C1` (stereo not drawn) [Example 39, 2-Methyl-2-[2-(3-naphthalen-2-yl-1-pentylureido)indan-5-ylsulfanyl]propionic acid], for which the “PPARδ FI” value was determined as 9.3.

As to `CCCN(C(=O)Nc1ccc(OC(F)(F)F)cc1)C1CCc2ccc(SC(C)(C)C(=O)O)cc2C1` (stereo not drawn) [Example 46, 2-Methyl-2-{7-[1-propyl-3-(4-trifluoromethoxyphenyl)ureido}-5,6,7,8-tetrahydronaphthalen-2-ylsulfanyl}propionic acid], the “PPARδ FI” value turned out to be 6.0.

(Values after patent US20060094786A1, “Treating syndrome X with substituted tetralins and indanes” (priority 2002, published 2006).)
